“And” between values parts separate entries of the source, which are not always exact repeats. Identical values can stand only once.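 Values below derive from 48-hour exposures of cells grown in 96-well plates, with endpoints linearly interpolated between the two concentrations bracketing the appropriate inhibition level. GI50: concentration for 50% inhibition of growth. TGI denotes the concentration required for complete inhibition of growth.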
What was measured:
Test in all cases: DTP human tumour cell line panel, 48 h
786-0 renal = system: 786-0 renal
A498 renal = system: A498 renal
IGROV1 ovarian = system: IGROV1 ovarian
K-562 leukemia = system: K-562 leukemia
RPMI-8226 leukemia = system: RPMI-8226 leukemia
RXF 393 renal = system: RXF 393 renal
SF-539 CNS = system: SF-539 CNS
SW-620 colon = system: SW-620 colon
T-47D breast = system: T-47D breast
UACC-257 melanoma = system: UACC-257 melanoma

SMILES | GI50 (786-0 renal) | TGI (786-0 renal) | GI50 (A498 renal) | TGI (A498 renal) | GI50 (IGROV1 ovarian) | TGI (IGROV1 ovarian) | GI50 (K-562 leukemia) | TGI (K-562 leukemia) | GI50 (RPMI-8226 leukemia) | TGI (RPMI-8226 leukemia) | GI50 (RXF 393 renal) | TGI (RXF 393 renal) | GI50 (SF-539 CNS) | TGI (SF-539 CNS) | GI50 (SW-620 colon) | TGI (SW-620 colon) | GI50 (T-47D breast) | TGI (T-47D breast) | GI50 (UACC-257 melanoma) | TGI (UACC-257 melanoma)
[Cl][Hg][c]1cc(Br)cc(Br)c1 | 1.69 µM | 3.2 µM | 2.64 µM | 8.01 µM | 1.47 µM | 3.41 µM | 1.12 µM | 3.81 µM | 1.81 µM | 4.86 µM | 1.45 µM | 2.85 µM | 1.65 µM | 3.31 µM | 1.74 µM | 3.52 µM | 2 µM | 7.88 µM | 10 µM | 21.6 µM
CCN(CC)CCCC(CNc1ccnc2cc(Cl)ccc12)c1ccc(Cl)cc1 (stereo not given) | 1.43 µM and 1.57 µM | 2.85 µM and 2.97 µM | 1.83 µM and 1.35 µM | 3.33 µM and 2.8 µM | 2.42 µM and 1.6 µM | 7.47 µM and 4.55 µM | 0.289 µM and 0.227 µM | 0.994 µM and 0.603 µM | 1.36 µM and 0.59 µM | 4.79 µM and 2.69 µM | 1.4 µM and 1.03 µM | 3.01 µM and 2.51 µM | 1.23 µM and 1.52 µM | 2.67 µM and 3.07 µM | 1.43 µM and 1.55 µM | 3.02 µM and 3.35 µM | 1.64 µM and 2.06 µM | 3.42 µM and 4.02 µM | 1.97 µM and 0.583 µM | 3.74 µM and 1.61 µM
CNC(=O)N(C)N=NCCCl | – | > 100 µM | – | > 100 µM | – | > 100 µM | – | > 100 µM | – | > 100 µM | – | > 100 µM | – | > 100 µM | – | > 100 µM | – | > 100 µM | – | > 100 µM
CCOC(=O)CCCn1c(SC)nc2[nH]cc(-c3ccccc3)c2c1=O | 6.81 µM | 44.8 µM | 16.5 µM | 63.3 µM | 16.5 µM | 47 µM | 12.7 µM | 56.9 µM | 14.6 µM | 36.3 µM | 18.2 µM | 49 µM | 18.4 µM | 46.1 µM | 20.7 µM | 78.6 µM | 18.2 µM | 61.4 µM | 22.7 µM | 44.3 µM
COc1ccc2c(c1)CCCC(Br)C2=O (stereo not given) | – | > 30 µM | – | 36.4 µM | – | 4.28 µM | – | 18.7 µM | – | 5.5 µM | – | 17.7 µM | – | > 19.9 µM | – | > 33.3 µM | – | > 100 µM | – | 32.1 µM
CC(C)=CCNc1ncnc2c1ncn2C1OC(CO)C(O)C1O (stereo not given) | 1.37 µM | 11.4 µM | 0.405 µM | 1.51 µM | 0.573 µM | 19.2 µM | 0.703 µM | > 380 µM | 2.91 µM | 25.2 µM | 0.488 µM | 2.6 µM | 2.22 µM | 7.65 µM | 0.725 µM | 24.7 µM | 0.983 µM | 3.92 µM | > 792 µM | > 1000 µM
CN(C)N=Nc1ccc(NC=O)cc1 | – | > 100 µM | – | > 100 µM | – | > 100 µM | – | > 100 µM | – | > 100 µM | – | > 100 µM | – | > 100 µM | – | > 100 µM | – | > 100 µM | – | > 100 µM
C=C(CNCc1ccccc1)c1ccc(C(=O)Nc2ccccc2N)cc1 | 4.44 µM | > 100 µM | 1.06 µM | 7.83 µM | 3.21 µM | 36.9 µM | 2.58 µM | > 100 µM | 3.08 µM | > 100 µM | 1.87 µM | 24.1 µM | 7.63 µM | 55.2 µM | 8.5 µM | > 100 µM | 1.59 µM | > 100 µM | 1.54 µM | 15.5 µM
C=C(c1nc2ccc(Cl)cc2[nH]c1=O)C(O)c1ccc(C(O)C(=O)c2nc3ccc(Cl)cc3[nH]c2=O)cc1 (stereo not given) | – | > 100 µM | – | > 100 µM | – | > 100 µM | – | > 100 µM | – | > 100 µM | – | > 100 µM | – | > 100 µM | – | > 100 µM | – | > 100 µM | – | > 100 µM
O=C(OC(CNc1cc(=O)n(Cc2ccccc2)c(=O)n1Cc1ccccc1)CN1CCCC1)c1ccccc1 (stereo not given) | > 100 µM | > 100 µM | > 100 µM | > 100 µM | > 100 µM | > 100 µM | 92.1 µM | > 100 µM | 29.3 µM | > 100 µM | 76.1 µM | > 100 µM | > 100 µM | > 100 µM | > 100 µM | > 100 µM | 18.9 µM | > 100 µM | > 100 µM | > 100 µM
CCN(CC)CCC(CNc1ccnc2cc(Cl)ccc12)c1ccc(OC)cc1 (stereo not given) | 11.9 µM and 3.46 µM | 25.8 µM and 11.8 µM | 3.82 µM and 3.49 µM | 13.4 µM and 14.1 µM | 10.7 µM and 4.28 µM | 39.8 µM and 24.2 µM | 1.79 µM and 1.19 µM | 5.76 µM and 4.14 µM | 7.14 µM and 2.12 µM | 35.5 µM and 8.15 µM | 3.5 µM and 2.26 µM | 15.6 µM and 5.16 µM | 1.56 µM and 1.7 µM | 3.17 µM and 3.6 µM | 8.16 µM and 4.1 µM | 22.6 µM and 21.7 µM | 2.59 µM and 2.73 µM | 6.66 µM and 7.85 µM | 2.19 µM and 1.72 µM | 3.96 µM and 3.48 µM
O=C(CNc1ccc(Cl)cc1)Nc1ccc(-c2nc3ccccc3s2)cc1 | 1.9 µM | 4.03 µM | 12.5 µM | 25 µM | 5.79 µM | 12.9 µM | 1.95 µM | > 100 µM | 2.82 µM | 16 µM | 4.95 µM | 10.3 µM | 4.93 µM | 9.79 µM | 2.15 µM | 4.73 µM | 5.2 µM | 16.6 µM | 7.7 µM | 21.6 µM
COc1cc(N(CCC#N)CCC#N)ccc1/C(N=Nc1ccc([N+](=O)[O-])cc1)=N/NC(=O)c1cc(Br)ccc1O | 46.4 µg/mL | > 150 µg/mL | 86.6 µg/mL | > 150 µg/mL | 26.6 µg/mL | 121 µg/mL | 63.1 µg/mL | > 150 µg/mL | 38.2 µg/mL | > 150 µg/mL | 30.3 µg/mL | 83.8 µg/mL | 33.2 µg/mL | 122 µg/mL | 57.4 µg/mL | > 150 µg/mL | 34.6 µg/mL | 87 µg/mL | 52.3 µg/mL | > 150 µg/mL
CCCCCCNC(=O)c1cc(NCc2cc(O)ccc2O)ccc1O | 5.22 µM | 20.7 µM | 16.1 µM | > 100 µM | 12.7 µM | 38.7 µM | 2.71 µM | 12.8 µM | 0.371 µM | 6.47 µM | 2.42 µM | 8.03 µM | 1.91 µM | 6.06 µM | 8.75 µM | 33.1 µM | 1.92 µM | 5 µM | 14.1 µM | 30.4 µM
